The first series can be described thus: in vitro. The following applies: human, hela cells, % viability.
In the case of `Cc1cc(O)ccc1Nc1cc(-c2ccccc2N(C)C)ncn1` [CBK091051], the viability at 28.5 h, 10 µM came out at 104%.

Turning to `CCC(C)(C)c1ccc(S(=O)(=O)N2CCN(CCCC#N)CC2)cc1` [CBK063134], the viability at 28.5 h, 10 µM stood at 93.4%.

For `CCN(CC)C(=O)c1sc2nc(-c3cccs3)nc(C)c2c1N` [CBK115366], the viability at 28.5 h, 10 µM was determined as 100%.

Consider `Clc1ccc(-c2cc(NC3CCCCC3)ncn2)cc1` [CBK090902], for which the viability at 28.5 h, 10 µM was 101%.

For `Cc1cc(C)cc(C(O)CNC2CCN(Cc3cscn3)CC2)c1` (stereo not shown) [CBK304457], the viability at 28.5 h, 10 µM was 94.4%.

`Cc1cccc(OCC(=O)Nc2ncn(Cc3cccnc3)n2)c1` [CBK304919]: the viability at 28.5 h, 10 µM came to 95.9%.

`CCOc1cc(/C=N/O)ccc1OC(=O)c1cccc([N+](=O)[O-])c1` [CBK090036]: the viability at 28.5 h, 10 µM worked out at 107%.

As for `CC(C)N(CCOc1nccnc1/C=C/c1ccccc1)C(C)C` [CBK106889], the viability at 28.5 h, 10 µM amounted to 96%.

With `c1ccc2[nH]c(CCSCCc3nc4ccccc4[nH]3)nc2c1` [CBK023949], the viability at 28.5 h, 10 µM amounted to 86%.

For the compound `CS(=O)(=O)Nc1cccc(C2=NN(C(=O)CCC(=O)O)C(c3cccc(F)c3)C2)c1` (stereo not shown) [CBK268804], the viability at 28.5 h, 10 µM was found to be 85%.

On to `N#C/C(=C\Nc1ccc(S(N)(=O)=O)cc1)c1nc(-c2cc3c(ccc4ccccc43)oc2=O)cs1` [CBK262376], for which the viability at 28.5 h, 10 µM is 105%.

In the case of `CC(=O)c1ccc(C(=O)N(C)Cc2ccc(F)cc2)s1` [CBK296660], the viability at 28.5 h, 10 µM was found to be 99.8%.

Turning to `COc1cc(Cc2c(OCCN(C)C)nc3ccccn3c2=O)cc(OC)c1OC` [CBK005004C], the viability at 28.5 h, 10 µM was 99.9%.

Consider `COc1ccc(-c2cc(C(=O)NCC(O)c3ccc4ccccc4c3)cnc2-c2ccccc2)cn1` (stereo not shown) [CBK037562], for which the viability at 28.5 h, 10 µM is 103%.

Take `CCCCCC(=O)N1CCc2cc(N3CC(CNC(C)=O)OC3=O)ccc21` (stereo not shown) [CBK007646]: the viability at 28.5 h, 10 µM is 92.5%.

On to `CCOC(=O)N1CCC(NS(=O)(=O)c2cn(C)c(=O)n(C)c2=O)CC1` [CBK305699], for which the viability at 28.5 h, 10 µM came to 89.1%.

In the case of `C=CCn1cc(CN2CCc3nc(C)[nH]c(=O)c3C2)c2ccccc21` [CBK282376], the viability at 28.5 h, 10 µM came to 85.9%.

As for `O=C(Nc1cccc2c(NC(=O)C3CC3c3ccccc3)cccc12)C1CC1c1ccccc1` (stereo not shown) [CBK260911], the viability at 28.5 h, 10 µM worked out at 99.1%.

In the case of `CS(=O)(=O)c1ccc(CNC(=O)c2cc(-c3ccc(C(=O)N4CCOCC4)cc3)cnc2N)cc1` [CBK158599], the viability at 28.5 h, 10 µM came out at 93%.

`CCOC(=O)c1ccc(-c2ccc(OC)cc2)cc1` [CBK002658]: the viability at 28.5 h, 10 µM came to 95.2%.

For `CCOC(=O)N1CCC(NS(=O)(=O)c2ccc(Cl)c(Cl)c2Cl)CC1` [CBK045471], the viability at 28.5 h, 10 µM turned out to be 96.4%.

Take `O=C(CSc1nsc(SCC(=O)c2ccccc2)n1)c1ccccc1` [CBK264142]: the viability at 28.5 h, 10 µM stood at 120%.

As to `COc1ccc(N2CCN(Cc3nc4c(c(=O)n(C)c(=O)n4C)n3C(C)C(C)=O)CC2)cc1` (stereo not shown) [CBK269453], the viability at 28.5 h, 10 µM was 88.7%.

Take `O=C(O)c1ccc(-c2ccc(/C=c3\sc4nc5ccccc5n4c3=O)o2)cc1` [CBK261817]: the viability at 28.5 h, 10 µM worked out at 99.3%.

Take `Cc1sc2nc(SCCCC(=O)NCCO)nc(N)c2c1C` [CBK264482]: the viability at 28.5 h, 10 µM came out at 96.2%.

For `Cc1nn(-c2ccc(F)cc2)c2c1C(c1ccc(C(=O)O)cc1)CC(=O)N2` (stereo not shown) [CBK286561], the viability at 28.5 h, 10 µM was found to be 101%.

As to `Cc1cccc(CNc2nccnc2-c2ccncc2)c1` [CBK037453], the viability at 28.5 h, 10 µM was 99.3%.

Turning to `O=C(COC(=O)C1CCC(N2C(=O)c3ccccc3C2=O)CC1)c1ccc(-c2ccccc2)cc1` (stereo not shown) [CBK264789], the viability at 28.5 h, 10 µM was found to be 90.4%.

`CCN1CC2(CCN(Cc3nc4ccccc4s3)CC2)c2ccccc21` [CBK136993]: the viability at 28.5 h, 10 µM was 108%.

`Cc1cc(C(=O)NCc2ccccc2)n[nH]1` [CBK200198]: the viability at 28.5 h, 10 µM is 95.7%.

As to `COc1ccc(OC(=O)c2ccc3nonc3c2)cc1` [CBK083571], the viability at 28.5 h, 10 µM came out at 97.9%.

As to `O=C(CCc1nc2ccccc2[nH]1)Nc1ccc(F)cc1` [CBK267238], the viability at 28.5 h, 10 µM came to 95.5%.

Regarding `COc1ccc(Cl)cc1NS(=O)(=O)N1CCOCC1` [CBK269937], the viability at 28.5 h, 10 µM was determined as 93%.

As for `Cc1cc(=O)c2ccccc2n1CC(=O)N1CCOC2(CCCC2)C1` [CBK306811], the viability at 28.5 h, 10 µM is 93.5%.

For `Nc1ncc(-c2ccc(C(=O)N3CCOCC3)cc2)nc1C(=O)NCc1ccc(O)cc1` [CBK149161], the viability at 28.5 h, 10 µM was 109%.

Consider `O=S(=O)(NCc1ccco1)c1ccc2c(c1)Cc1ccccc1-2` [CBK267377], for which the viability at 28.5 h, 10 µM came out at 95.5%.

As to `CNC(=O)c1ccc(-c2cccc(COC)c2)nc1NCC1CC1` [CBK106322], the viability at 28.5 h, 10 µM was 90.7%.

In the case of `Cc1ccc(N(CC(O)CN2CCCC2)S(=O)(=O)c2ccccc2)cc1` (stereo not shown) [CBK264739], the viability at 28.5 h, 10 µM stood at 101%.

Turning to `CCN(Cc1nccn1CC)[C@H]1CCO[C@@H](c2ccccc2-c2ccc(OC)cc2)C1` [CBK285852], the viability at 28.5 h, 10 µM worked out at 101%.

With `Cc1ccc(S(=O)(=O)NCC(=O)O)c2nsnc12` [CBK261140], the viability at 28.5 h, 10 µM is 93.1%.

As to `CC(=O)NCCN(Cc1ccc(S(=O)(=O)N2CCOC2=O)cc1)Cc1ccoc1` [CBK024460], the viability at 28.5 h, 10 µM turned out to be 110%.

Turning to `CC(=O)N1CCCC(c2cc3cccnc3n2CCN2CCCC2)C1` (stereo not shown) [CBK284591], the viability at 28.5 h, 10 µM was found to be 96.8%.

Regarding `CCOC(=O)CCCNC(=O)N1CCN(c2ccccc2OC)CC1` [CBK155618], the viability at 28.5 h, 10 µM is 95.9%.

Consider `O=C(O)[C@H]1CN(C(=O)c2ccco2)C[C@@H]1c1ccc(F)cc1` [CBK283735], for which the viability at 28.5 h, 10 µM came to 105%.

For the compound `Cc1csc(NC(=O)C2CC(=O)N(C3CCCC3)C2)n1` (stereo not shown) [CBK175501], the viability at 28.5 h, 10 µM was 107%.

With `N#Cc1ccc(NCC(=O)Nc2ccn(Cc3ccncc3)n2)cc1` [CBK306241], the viability at 28.5 h, 10 µM was determined as 89.7%.

Turning to `COC(=O)CCCC(=O)n1c(=O)n(CC2CCCCC2)c2ccccc21` [CBK106524], the viability at 28.5 h, 10 µM is 112%.

As to `O=C(O)c1ccc(S(=O)(=O)c2ccc3c(c2)C(=O)N(c2cc(C(=O)O)cc(C(=O)O)c2)C3=O)cc1` [CBK262824], the viability at 28.5 h, 10 µM was determined as 92.8%.

In the case of `O=C(O)C(Cc1ccccc1)N1C(=O)/C(=C/c2ccc([N+](=O)[O-])cc2)SC1=S` (stereo not shown) [CBK263108], the viability at 28.5 h, 10 µM is 84.3%.

For `O=C(O)c1ccc(S(=O)(=O)c2ccc3c(c2)C(=O)N(c2ccc(Sc4ccc([N+](=O)[O-])cc4)cc2)C3=O)cc1` [CBK262869], the viability at 28.5 h, 10 µM came to 104%.

For the compound `Cc1ccccc1OCC(=O)NN1CCN(C)CC1` [CBK265783C], the viability at 28.5 h, 10 µM worked out at 89%.

On to `CN1CCN(c2nc(-c3ccccc3)cc(-c3ccc(Br)cc3)n2)CC1` [CBK262774], for which the viability at 28.5 h, 10 µM is 93.7%.

Consider `O=C(NCc1csc2c1CCCC2)N1CCC(CO)CC1` [CBK307476], for which the viability at 28.5 h, 10 µM is 98.9%.

`Cc1ccc(S(=O)(=O)NCC(=O)N2CCN(Cc3ccccc3)CC2)cc1` [CBK265991]: the viability at 28.5 h, 10 µM came to 104%.

On to `CC(NS(=O)(=O)c1cccc2c(S(=O)(=O)NC(C)c3ccccc3)cccc12)c1ccccc1` (stereo not shown) [CBK267717], for which the viability at 28.5 h, 10 µM was found to be 83.6%.

Take `COCCSc1nnc(NS(=O)(=O)Cc2ccccc2)s1` [CBK267535]: the viability at 28.5 h, 10 µM was found to be 97.6%.

In the case of `O=C(Nc1ccc(N2CCN(C(=O)c3ccccc3F)CC2)cc1)c1nc[nH]n1` [CBK269497], the viability at 28.5 h, 10 µM turned out to be 107%.

As for `Cc1nnc(SCC(=O)Nc2nonc2C)s1` [CBK269227], the viability at 28.5 h, 10 µM was 98.9%.

In the case of `CSCCN(CC(=O)O)Cc1ccccc1` [CBK005712], the viability at 28.5 h, 10 µM was 91.1%.

Regarding `O=C(O)c1cccc(NC(=O)c2c(C(=O)O)cccc2[N+](=O)[O-])c1` [CBK261096], the viability at 28.5 h, 10 µM came out at 99.6%.

As to `CN(C)c1ccc(/C=N/N=C2\NC(=O)CS2)cc1` [CBK019273], the viability at 28.5 h, 10 µM worked out at 60.6%.

As to `O=C(O)c1ccc(Cl)c(-c2ccc(/C=N/Nc3ccc([N+](=O)[O-])cc3)o2)c1` [CBK078331], the viability at 28.5 h, 10 µM turned out to be 97.8%.

On to `Cc1nc(C)c(C(=O)NCc2cccnc2N(C)C2CCCCC2)s1` [CBK306885], for which the viability at 28.5 h, 10 µM stood at 95%.

Regarding `CSCCCNC(=O)c1ccc(-c2ccoc2)nc1` [CBK156262], the viability at 28.5 h, 10 µM came to 99%.

Regarding `Cc1nn(CC(=O)N2CCC(C)CC2)c(=O)c2cc3sccc3n12` [CBK284083], the viability at 28.5 h, 10 µM was 80%.

For the compound `COC(=O)c1c(NC(=O)CC2SCC(C(=O)OC)NC2=O)sc2c1CCCC2` (stereo not shown) [CBK263834], the viability at 28.5 h, 10 µM was 94.5%.

With `O=C(O)CCC(=O)N1CCN(c2ccc(C(=O)c3ccc(F)cc3)cc2)CC1` [CBK269119], the viability at 28.5 h, 10 µM came to 112%.

For `Cn1c(SCc2cc(-c3ccc(Cl)cc3)no2)nnc1-c1ccco1` [CBK295193], the viability at 28.5 h, 10 µM was 81.9%.

In the case of `CC(=O)Nc1ccc(N2C(=O)CSC23C(=O)Nc2ccccc23)cc1` (stereo not shown) [CBK095916], the viability at 28.5 h, 10 µM came to 91.7%.

Turning to `N#Cc1c(C(F)(F)F)cc(-c2cccs2)nc1SCC(O)CN1CCSCC1` (stereo not shown) [CBK265947], the viability at 28.5 h, 10 µM was 88.2%.

Consider `CC(C)(C)OC(=O)N1CCC(N2CCc3cc(-c4ccc(S(C)(=O)=O)cc4)ccc3C2)CC1` [CBK165796], for which the viability at 28.5 h, 10 µM was found to be 82.7%.

As to `COc1ccc(Nc2ccc(-c3cnc(OC)nc3OC)cn2)c(C)c1` [CBK036827], the viability at 28.5 h, 10 µM was 115%.

For `O=C(NCc1ccccc1)c1ccccc1NS(=O)(=O)c1ccccc1F` [CBK113881], the viability at 28.5 h, 10 µM was 106%.

In the case of `CC(C)c1[nH]c2ncccc2c1CN1CCSCC1` [CBK285312], the viability at 28.5 h, 10 µM is 94%.

As to `Cc1c(C(=O)NCc2ccncc2)nnn1-c1cccc(C(F)(F)F)c1` [CBK107396], the viability at 28.5 h, 10 µM was determined as 88.7%.

Take `CC(=O)c1ccc(-c2nccnc2NCC2CC2)s1` [CBK037975]: the viability at 28.5 h, 10 µM stood at 104%.

Consider `Cc1ccc(C(=O)NC2CCCC2)cn1` [CBK200117], for which the viability at 28.5 h, 10 µM was 91.6%.

`CCN1CCN(c2ccc(NC(=O)c3cccnc3)cc2Cl)CC1` [CBK266629C]: the viability at 28.5 h, 10 µM is 97.9%.

The same series, now with this note: human, hela cells, % viability, bulk resorufin, single well.
Regarding `COC(=O)c1cccc2c3c(n(Cc4ccccc4)c12)CCCC3=O` [CBK036304], the viability at 28.5 h, 10 µM was 94.7%.

Broadly, the viability is a read-out of living cells in per cent, often relative to untreated cells.

Values taken from publication PMC12040169 (PLOS Biology, 2025).
